Converted amounts (≈) assume the structure as drawn.
How the values were obtained:
[1] = system: Staphylococcus aureus; test: Antibacterial activity against Staphylococcus aureus; type: functional
[2] = system: Acinetobacter baumannii; test: Antibacterial activity against multi-drug resistant Acinetobacter baumannii clinical isolate 12 assessed as inhibition of bacterial growth incubated for 16 to 18 hrs by CLSI protocol based method; type: functional; conditions: time 16-18 hrs, read-out: MIC100
[3] = system: Acinetobacter baumannii; test: Antibacterial activity against multi-drug resistant Acinetobacter baumannii Naval-81 assessed as inhibition of bacterial growth incubated for 16 to 18 hrs by CLSI protocol based method; type: functional; conditions: time 16-18 hrs, read-out: MIC100
[4] = system: Acinetobacter baumannii; test: Antibacterial activity against multi-drug resistant Acinetobacter baumannii 5-109 assessed as inhibition of bacterial growth incubated for 16 to 18 hrs by CLSI protocol based method; type: functional; conditions: time 16-18 hrs, read-out: MIC100
[5] = system: Acinetobacter baumannii; test: Antibacterial activity against multi-drug resistant Acinetobacter baumannii Naval-18 assessed as inhibition of bacterial growth incubated for 16 to 18 hrs by CLSI protocol based method; type: functional; conditions: time 16-18 hrs, read-out: MIC100
[6] = system: Acinetobacter baumannii; test: Antibacterial activity against multi-drug resistant Acinetobacter baumannii clinical isolate 1 assessed as inhibition of bacterial growth incubated for 16 to 18 hrs by CLSI protocol based method; type: functional; conditions: time 16-18 hrs, read-out: MIC100
[7] = system: Acinetobacter baumannii; test: Antibacterial activity against multi-drug resistant Acinetobacter baumannii clinical isolate 11 assessed as inhibition of bacterial growth incubated for 16 to 18 hrs by CLSI protocol based method; type: functional; conditions: time 16-18 hrs, read-out: MIC100
[8] = system: Acinetobacter baumannii; test: Antibacterial activity against multi-drug resistant Acinetobacter baumannii clinical isolate 9 assessed as inhibition of bacterial growth incubated for 16 to 18 hrs by CLSI protocol based method; type: functional; conditions: time 16-18 hrs, read-out: MIC100
[9] = system: Acinetobacter baumannii; test: Antibacterial activity against multi-drug resistant Acinetobacter baumannii clinical isolate 8 assessed as inhibition of bacterial growth incubated for 16 to 18 hrs by CLSI protocol based method; type: functional; conditions: time 16-18 hrs, read-out: MIC100
[10] = system: Acinetobacter baumannii; test: Antibacterial activity against multi-drug resistant Acinetobacter baumannii NR-17777 assessed as inhibition of bacterial growth incubated for 16 to 18 hrs by CLSI protocol based method; type: functional; conditions: time 16-18 hrs, read-out: MIC100
[11] = system: Acinetobacter baumannii; test: Antibacterial activity against multi-drug resistant Acinetobacter baumannii clinical isolate 3 assessed as inhibition of bacterial growth incubated for 16 to 18 hrs by CLSI protocol based method; type: functional; conditions: time 16-18 hrs, read-out: MIC100
[12] = system: Acinetobacter baumannii; test: Antibacterial activity against multi-drug resistant Acinetobacter baumannii clinical isolate 6 assessed as inhibition of bacterial growth incubated for 16 to 18 hrs by CLSI protocol based method; type: functional; conditions: time 16-18 hrs, read-out: MIC100
[13] = system: Acinetobacter baumannii; test: Antibacterial activity against multi-drug resistant Acinetobacter baumannii clinical isolate 4 assessed as inhibition of bacterial growth incubated for 16 to 18 hrs by CLSI protocol based method; type: functional; conditions: time 16-18 hrs, read-out: MIC100
[14] = system: Acinetobacter baumannii; test: Antibacterial activity against multi-drug resistant Acinetobacter baumannii 5-143 assessed as inhibition of bacterial growth incubated for 16 to 18 hrs by CLSI protocol based method; type: functional; conditions: time 16-18 hrs, read-out: MIC100
[15] = system: Acinetobacter baumannii; test: Antibacterial activity against Acinetobacter baumannii ATCC 17978 assessed as inhibition of bacterial growth incubated for 16 to 18 hrs by CLSI protocol based method; type: functional; conditions: time 16-18 hrs, read-out: MIC100
[16] = system: Acinetobacter baumannii; test: Antibacterial activity against multi-drug resistant Acinetobacter baumannii clinical isolate 7 assessed as inhibition of bacterial growth incubated for 16 to 18 hrs by CLSI protocol based method; type: functional; conditions: time 16-18 hrs, read-out: MIC100
[17] = system: Acinetobacter baumannii; test: Antibacterial activity against multi-drug resistant Acinetobacter baumannii 5-032 assessed as inhibition of bacterial growth incubated for 16 to 18 hrs by CLSI protocol based method; type: functional; conditions: time 16-18 hrs, read-out: MIC100
[18] = system: Acinetobacter baumannii; test: Antibacterial activity against multi-drug resistant Acinetobacter baumannii Naval-17 assessed as inhibition of bacterial growth incubated for 16 to 18 hrs by CLSI protocol based method; type: functional; conditions: time 16-18 hrs, read-out: MIC100
[19] = system: Acinetobacter baumannii; test: Antibacterial activity against multi-drug resistant Acinetobacter baumannii clinical isolate 10 assessed as inhibition of bacterial growth incubated for 16 to 18 hrs by CLSI protocol based method; type: functional; conditions: time 16-18 hrs, read-out: MIC100
[20] = system: Acinetobacter baumannii; test: Antibacterial activity against multi-drug resistant Acinetobacter baumannii H72721 assessed as inhibition of bacterial growth incubated for 16 to 18 hrs by CLSI protocol based method; type: functional; conditions: time 16-18 hrs, read-out: MIC100
[21] = system: Acinetobacter baumannii; test: Antibacterial activity against multi-drug resistant Acinetobacter baumannii BC-5 assessed as inhibition of bacterial growth incubated for 16 to 18 hrs by CLSI protocol based method; type: functional; conditions: time 16-18 hrs, read-out: MIC100
[22] = system: Acinetobacter baumannii; test: Antibacterial activity against multi-drug resistant Acinetobacter baumannii 5-189 assessed as inhibition of bacterial growth incubated for 16 to 18 hrs by CLSI protocol based method; type: functional; conditions: time 16-18 hrs, read-out: MIC100
[23] = system: Acinetobacter baumannii; test: Antibacterial activity against multi-drug resistant Acinetobacter baumannii clinical isolate 5 assessed as inhibition of bacterial growth incubated for 16 to 18 hrs by CLSI protocol based method; type: functional; conditions: time 16-18 hrs, read-out: MIC100
[24] = system: Acinetobacter baumannii; test: Antibacterial activity against multi-drug resistant Acinetobacter baumannii clinical isolate 2 assessed as inhibition of bacterial growth incubated for 16 to 18 hrs by CLSI protocol based method; type: functional; conditions: time 16-18 hrs, read-out: MIC100
[25] = system: Acinetobacter baumannii; test: Antibacterial activity against multi-drug resistant Acinetobacter baumannii WL-487 assessed as inhibition of bacterial growth incubated for 16 to 18 hrs by CLSI protocol based method; type: functional; conditions: time 16-18 hrs, read-out: MIC100
[26] = system: Acinetobacter baumannii; test: Antibacterial activity against carbapenem-resistant Acinetobacter baumannii BAA 1605 assessed as inhibition of bacterial growth incubated for 16 to 18 hrs by CLSI protocol based method; type: functional; conditions: time 16-18 hrs, read-out: MIC100
[27] = system: Acinetobacter baumannii; test: Antibacterial activity against multi-drug resistant Acinetobacter baumannii WL-136 assessed as inhibition of bacterial growth incubated for 16 to 18 hrs by CLSI protocol based method; type: functional; conditions: time 16-18 hrs, read-out: MIC100
[28] = system: Acinetobacter baumannii; test: Antibacterial activity against Acinetobacter baumannii; type: functional
[29] = system: Acinetobacter baumannii; test: Antibacterial activity against Acinetobacter baumannii assessed as inhibition of bacterial growth by CLSI protocol based assay; type: functional
[30] = system: Pseudomonas aeruginosa; test: Antibacterial activity against Pseudomonas aeruginosa ATCC 27853 assessed as inhibition of bacterial growth incubated for 16 to 18 hrs by CLSI protocol based method; type: functional; conditions: time 16-18 hrs, read-out: MIC100
[31] = Cytotoxicity against African green monkey Vero cells assessed as reduction in cell viability incubated for 72 hrs by MTT assay; type: toxicity, cell-based; conditions: chlorocebus sabaeus
[32] = system: Escherichia coli; test: Antibacterial activity against Escherichia coli ATCC 25922 assessed as inhibition of bacterial growth incubated for 16 to 18 hrs by CLSI protocol based method; type: functional; conditions: time 16-18 hrs, read-out: MIC100
[33] = Selectivity index, ratio of CC50 for cytotoxicity against African green monkey VERO cells to MIC for antibacterial activity against carbapenem-resistant Acinetobacter baumannii BAA 1605 assessed as inhibition of bacterial growth; type: toxicity, cell-based; conditions: read-out: Selectivity Index
[34] = system: Staphylococcus aureus; test: Antibacterial activity against Staphylococcus aureus ATCC 29213 assessed as inhibition of bacterial growth incubated for 16 to 18 hrs by CLSI protocol based method; type: functional; conditions: time 16-18 hrs, read-out: MIC100
[35] = system: Klebsiella pneumoniae; test: Antibacterial activity against Klebsiella pneumoniae BAA 1705 assessed as inhibition of bacterial growth incubated for 16 to 18 hrs by CLSI protocol based method; type: functional; conditions: time 16-18 hrs, read-out: MIC100

| SMILES | MIC [2] [µg/mL] | MIC [3] [µg/mL] | MIC [4] [µg/mL] | MIC [5] [µg/mL] | MIC [6] [µg/mL] | MIC [7] [µg/mL] | MIC [8] [µg/mL] | MIC [9] [µg/mL] | MIC [10] [µg/mL] | MIC [11] [µg/mL] | MIC [12] [µg/mL] | MIC [13] [µg/mL] | MIC [14] [µg/mL] | MIC [15] [µg/mL] | MIC [16] [µg/mL] | MIC [17] [µg/mL] | MIC [18] [µg/mL] | MIC [19] [µg/mL] | MIC [20] [µg/mL] | MIC [21] [µg/mL] | other results |
| --- | --- | --- | --- | --- | --- | --- | --- | --- | --- | --- | --- | --- | --- | --- | --- | --- | --- | --- | --- | --- | --- |
| Cc1ccc2cc(C(=O)N3CCN(CCN4C(=O)c5cccc6cccc(c56)C4=O)CC3)c(=O)oc2c1 |  |  |  |  |  |  |  |  |  |  |  |  |  |  |  |  |  |  |  |  | MIC [1]: 0.5 µg/mL (≈ 1.01 µM) |
| CN(C)c1ccc(O)c2c1C[C@H]1C[C@H]3[C@H](N(C)C)C(O)=C(C(N)=O)C(=O)[C@@]3(O)C(O)=C1C2=O [MINOCYCLINE] | 4 (≈ 8.74 µM) | 1 (≈ 2.19 µM) | 2 (≈ 4.37 µM) | 1 (≈ 2.19 µM) | 2 (≈ 4.37 µM) | 2 (≈ 4.37 µM) | 4 (≈ 8.74 µM) | 4 (≈ 8.74 µM) | 2 (≈ 4.37 µM) | 1 (≈ 2.19 µM) | 4 (≈ 8.74 µM) | 2 (≈ 4.37 µM) | 0.25 (≈ 0.546 µM) | 0.125 (≈ 0.273 µM) | 8 (≈ 17.5 µM) | 0.25 (≈ 0.546 µM) | 16 (≈ 35 µM) | 2 (≈ 4.37 µM) | 2 (≈ 4.37 µM) | 2 (≈ 4.37 µM) | MIC [22]: 8 µg/mL (≈ 17.5 µM); MIC [23]: 8 µg/mL (≈ 17.5 µM); MIC [24]: 2 µg/mL (≈ 4.37 µM); MIC [25]: 0.25 µg/mL (≈ 0.546 µM); MIC [26]: 2 µg/mL (≈ 4.37 µM); MIC [27]: 0.25 µg/mL (≈ 0.546 µM) |
| N#Cc1ccc(NNC(=O)c2ccc(Br)cc2)cc1 |  |  |  |  |  |  |  |  |  |  |  |  |  |  |  |  |  |  |  |  | MIC [28]: 0.25 µg/mL (≈ 0.791 µM) |
| C[C@@H](O)[C@H]1C(=O)N2C(C(=O)O)=C(S[C@@H]3CN[C@H](C(=O)N(C)C)C3)[C@H](C)[C@H]12 [MEROPENEM] | > 64 | 4 (≈ 10.4 µM) | 4 (≈ 10.4 µM) | 64 (≈ 167 µM) | 16 (≈ 41.7 µM) | 64 (≈ 167 µM) | > 64 | 64 (≈ 167 µM) | 4 (≈ 10.4 µM) | 16 (≈ 41.7 µM) | > 64 | 32 (≈ 83.4 µM) | 8 (≈ 20.9 µM) | 0.5 (≈ 1.3 µM) | 2 (≈ 5.22 µM) | 4 (≈ 10.4 µM) | 4 (≈ 10.4 µM) | 16 (≈ 41.7 µM) | 32 (≈ 83.4 µM) | > 64 | MIC [22]: 2 µg/mL (≈ 5.22 µM); MIC [23]: > 64 µg/mL; MIC [24]: 32 µg/mL (≈ 83.4 µM); MIC [25]: 1 µg/mL (≈ 2.61 µM); MIC [26]: 16 µg/mL (≈ 41.7 µM); MIC [27]: 2 µg/mL (≈ 5.22 µM) |
| CN1C(=O)/C(=C/NNc2ccc(C#N)cc2)SC1=S |  |  |  |  |  |  |  |  |  |  |  |  |  |  |  |  |  |  |  |  | MIC [29]: 16 µg/mL (≈ 55.1 µM) |
| O=C(CCN1C(=O)c2cccc3cccc(c23)C1=O)NNc1ccc(Cl)cc1 | 1 (≈ 2.54 µM) | 1 (≈ 2.54 µM) | 2 (≈ 5.08 µM) | 1 (≈ 2.54 µM) | 1 (≈ 2.54 µM) | 2 (≈ 5.08 µM) | 1 (≈ 2.54 µM) | 1 (≈ 2.54 µM) | 2 (≈ 5.08 µM) | 0.5 (≈ 1.27 µM) | 2 (≈ 5.08 µM) | 1 (≈ 2.54 µM) | 2 (≈ 5.08 µM) | 1 (≈ 2.54 µM) | 1 (≈ 2.54 µM) | 2 (≈ 5.08 µM) | 1 (≈ 2.54 µM) | 2 (≈ 5.08 µM) | 1 (≈ 2.54 µM) | 1 (≈ 2.54 µM) | MIC [30]: > 64 µg/mL; CC50 at 72 h [31]: > 100 µg/mL; MIC [32]: > 64 µg/mL; MIC [22]: 2 µg/mL (≈ 5.08 µM); MIC [23]: 2 µg/mL (≈ 5.08 µM); MIC [24]: 1 µg/mL (≈ 2.54 µM); selectivity ratio [33]: > 200; MIC [25]: 1 µg/mL (≈ 2.54 µM); MIC [34]: > 64 µg/mL; MIC [26]: 0.5 µg/mL (≈ 1.27 µM); MIC [27]: 1 µg/mL (≈ 2.54 µM); MIC [35]: > 64 µg/mL |

Source: ChEMBL document CHEMBL6134788, “Development of naphthalimide hydrazide derivatives as potent antibacterial agents against carbapenem-resistant A. baumannii” (RSC Med Chem, 2024)
